# According to paper PMC11249646, “Small-Molecule Disruptors of the Interaction between Calcium- and Integrin-Binding Protein 1 and Integrin αIIbβ3 as Novel Antiplatelet Agents” (ACS Pharmacology & Translational Science, 2024):
# Target: T1, CIB1 and αIIb interaction (CIB1-GST : F-αIIb peptide) (Homo sapiens, UniProt Q99828)
# T1 construct: made in house; host or cells: BL-21 plus RIL cells (E. coli)
# T1 sequence (Q99828 1-191): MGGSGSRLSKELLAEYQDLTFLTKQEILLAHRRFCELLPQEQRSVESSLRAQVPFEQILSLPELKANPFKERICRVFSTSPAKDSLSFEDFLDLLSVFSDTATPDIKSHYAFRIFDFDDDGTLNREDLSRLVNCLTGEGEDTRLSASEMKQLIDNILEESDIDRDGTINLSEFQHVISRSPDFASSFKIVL
# Assay: FP assay, 1536-well qHTS format (primary and confirmatory screen)
# Assay type: binding
# Settings: qHTS FP screen hits, Table S2; negative = inhibition
row,Compound,Efficacy (%)
1,O=C(Nc1ccc(S(=O)(=O)N2CCOCC2)cc1)c1cc(Cl)ccc1NS(=O)(=O)c1ccc(Cl)s1 [NCGC00249417-02],-34%
2,N#Cc1ccc(NS(=O)(=O)c2ccc(NC(=O)Cc3ccc(Cl)c(Cl)c3)cc2)cc1.O=C(O)C(F)(F)F [NCGC00253445-02],-18%

# Same assay, conditions: qHTS FP screen hits, Table S2; read-out: IC50
row,Compound,IC50
1,O=C(Nc1ccc(S(=O)(=O)N2CCOCC2)cc1)c1cc(Cl)ccc1NS(=O)(=O)c1ccc(Cl)s1 [NCGC00249417-02],40.9 µM
2,N#Cc1ccc(NS(=O)(=O)c2ccc(NC(=O)Cc3ccc(Cl)c(Cl)c3)cc2)cc1.O=C(O)C(F)(F)F [NCGC00253445-02],3.5 µM

# Same assay, conditions: qHTS primary screen hits, Table S2; negative = inhibition
row,Compound,Efficacy (%)
1,Cc1c2c(=O)n(-c3ccccc3)[nH]c2cc(=O)n1CCc1ccccc1.O=C(O)C(F)(F)F [NCGC00248471-01],-28%
2,Cc1c2c(=O)n(-c3ccccc3)[nH]c2cc(=O)n1Cc1ccncc1.O=C(O)C(F)(F)F [NCGC00248478-01],-31%
3,CCCc1c(O)c(O)c(C(=O)O)c2cc(Cc3ccccc3)c(C)cc12 [NCGC00249596-02],-48%
4,O=C(O)C(F)(F)F.c1ccc(-n2cc(-c3nnc4n3CCCCC4)cn2)cc1 [NCGC00249642-01],-39%
5,Cc1cc(NS(=O)(=O)c2ccc(Nc3nc(-c4ccc(C)c(C)c4)cs3)cc2)no1.O=C(O)C(F)(F)F [NCGC00249742-01],-32%
6,CC(=O)N1CCN(c2ccc(NC[C@H]3CO[C@](Cn4ccnc4)(c4ccc(Cl)cc4Cl)O3)cc2)CC1 [NCGC00250372-03],-45%
7,COc1ccnc2c1CCCCC2[S+]([O-])c1nc2ccccc2[nH]1 (stereo not drawn) [NCGC00253591-01],-30%
8,Cc1cnc(-c2ccccc2C(C)C)nc1NC(C)c1ccc(-c2cccnc2)cc1.O=C(O)C(F)(F)F (stereo not drawn) [NCGC00253889-01],-56%
9,CN(Cc1cnc2nc(N)nc(N)c2n1)c1ccc(C(=O)N[C@@H](CCC(=O)O)C(=O)O)cc1 [NCGC00260705-01],-58%
10,COc1ccc(Br)cc1S(=O)(=O)NC(=O)/C=C/c1ccccc1Cc1ccc2ccccc2c1 [NCGC00260960-01],-50%
11,O=C1c2ccccc2-c2n[nH]c3cccc1c23 [NCGC00261158-01],-52%
12,O=C1NC(=O)/C(=C/c2ccc3c(c2)OC(F)(F)O3)S1 [NCGC00261190-01],-33%
13,CCOC(=O)N1CCN([N+]([O-])=NOc2ccc([N+](=O)[O-])cc2[N+](=O)[O-])CC1 [NCGC00261300-01],-44%
14,Cl.O=c1cc(N2CCOCC2)oc2c(-c3ccccc3)cccc12 [NCGC00261395-01],-52%
15,CCN(CC)CCOc1ccc(Nc2ncc3cc(-c4c(Cl)cccc4Cl)c(=O)n(C)c3n2)cc1.Cl.Cl.O [NCGC00261745-01],-36%
16,O=C(O)CCCC[P+](c1ccccc1)(c1ccccc1)c1ccccc1.[Br-] [NCGC00261975-01],-44%
17,O=C(O)C(F)(F)F.O=C(c1ccc2c(c1)ncn2-c1ccc(C(F)(F)F)cc1)N1CCCCC1 [NCGC00262230-01],-43%
18,O=C(Cn1nc(-c2ccc(F)cc2)ccc1=O)NCCc1ccccc1.O=C(O)C(F)(F)F [NCGC00262332-01],-24%
19,CC(C)COc1ccc(-c2ccc(=O)n(CC(=O)NCCc3ccccc3)n2)cc1.O=C(O)C(F)(F)F [NCGC00262348-01],-38%
20,O=C(O)C(F)(F)F.O=C(c1cnc(N2CCCCC2)c2ccccc12)N1CCN(c2ccccc2)CC1 [NCGC00262736-01],-64%
21,O=Cc1ccc(O)c(O)c1O [NCGC00262933-01],-62%
22,Cc1ccc(S(=O)(=O)Nc2ccc(OC(F)(F)F)cc2C(=O)Nc2nc(-c3ccccc3)cs2)cc1.O=C(O)C(F)(F)F [NCGC00262991-01],-27%

# Same assay, conditions: qHTS primary screen hits, Table S2; negative sign = inhibitory curve
row,Compound,Curve Class
1,O=C(O)C(F)(F)F.c1ccc(-n2cc(-c3nnc4n3CCCCC4)cn2)cc1 [NCGC00249642-01],-2.4
2,Cc1cnc(-c2ccccc2C(C)C)nc1NC(C)c1ccc(-c2cccnc2)cc1.O=C(O)C(F)(F)F (stereo not drawn) [NCGC00253889-01],-2.4
3,CN(Cc1cnc2nc(N)nc(N)c2n1)c1ccc(C(=O)N[C@@H](CCC(=O)O)C(=O)O)cc1 [NCGC00260705-01],-2.2
4,COc1ccc(Br)cc1S(=O)(=O)NC(=O)/C=C/c1ccccc1Cc1ccc2ccccc2c1 [NCGC00260960-01],-2.2
5,O=C1c2ccccc2-c2n[nH]c3cccc1c23 [NCGC00261158-01],-1.2
6,O=C1NC(=O)/C(=C/c2ccc3c(c2)OC(F)(F)O3)S1 [NCGC00261190-01],-1.2
7,Cl.O=c1cc(N2CCOCC2)oc2c(-c3ccccc3)cccc12 [NCGC00261395-01],-2.2
8,CCN(CC)CCOc1ccc(Nc2ncc3cc(-c4c(Cl)cccc4Cl)c(=O)n(C)c3n2)cc1.Cl.Cl.O [NCGC00261745-01],-2.2
9,O=C(O)C(F)(F)F.O=C(c1ccc2c(c1)ncn2-c1ccc(C(F)(F)F)cc1)N1CCCCC1 [NCGC00262230-01],-2.2
10,O=C(Cn1nc(-c2ccc(F)cc2)ccc1=O)NCCc1ccccc1.O=C(O)C(F)(F)F [NCGC00262332-01],-2.4
11,CC(C)COc1ccc(-c2ccc(=O)n(CC(=O)NCCc3ccccc3)n2)cc1.O=C(O)C(F)(F)F [NCGC00262348-01],-2.4
12,O=C(O)C(F)(F)F.O=C(c1cnc(N2CCCCC2)c2ccccc12)N1CCN(c2ccccc2)CC1 [NCGC00262736-01],-3
13,Cc1ccc(S(=O)(=O)Nc2ccc(OC(F)(F)F)cc2C(=O)Nc2nc(-c3ccccc3)cs2)cc1.O=C(O)C(F)(F)F [NCGC00262991-01],-2.4

# Same assay, conditions: qHTS primary screen hits, Table S2; negative sign = inhibitory curve; several classes where COUNT > 1
row,Curve Class,Compound
1,-2.2,CCCc1c(O)c(O)c(C(=O)O)c2cc(Cc3ccccc3)c(C)cc12 [NCGC00249596-02]
2,-2.4,CC(=O)N1CCN(c2ccc(NC[C@H]3CO[C@](Cn4ccnc4)(c4ccc(Cl)cc4Cl)O3)cc2)CC1 [NCGC00250372-03]
3,-2.2,COc1ccnc2c1CCCCC2[S+]([O-])c1nc2ccccc2[nH]1 (stereo not drawn) [NCGC00253591-01]
4,-2.4,O=C(O)CCCC[P+](c1ccccc1)(c1ccccc1)c1ccccc1.[Br-] [NCGC00261975-01]
5,-2.4,O=Cc1ccc(O)c(O)c1O [NCGC00262933-01]

row,Compound,Curve Class
1,Cc1c2c(=O)n(-c3ccccc3)[nH]c2cc(=O)n1CCc1ccccc1.O=C(O)C(F)(F)F [NCGC00248471-01],-2.4
2,Cc1c2c(=O)n(-c3ccccc3)[nH]c2cc(=O)n1Cc1ccncc1.O=C(O)C(F)(F)F [NCGC00248478-01],-2.4
3,Cc1cc(NS(=O)(=O)c2ccc(Nc3nc(-c4ccc(C)c(C)c4)cs3)cc2)no1.O=C(O)C(F)(F)F [NCGC00249742-01],-2.4

# Same assay, conditions: qHTS primary screen hits, Table S2; read-out: IC50
row,Compound,IC50
1,Cc1c2c(=O)n(-c3ccccc3)[nH]c2cc(=O)n1CCc1ccccc1.O=C(O)C(F)(F)F [NCGC00248471-01],50.1 µM
2,Cc1c2c(=O)n(-c3ccccc3)[nH]c2cc(=O)n1Cc1ccncc1.O=C(O)C(F)(F)F [NCGC00248478-01],50.1 µM
3,CCCc1c(O)c(O)c(C(=O)O)c2cc(Cc3ccccc3)c(C)cc12 [NCGC00249596-02],44.7 µM
4,O=C(O)C(F)(F)F.c1ccc(-n2cc(-c3nnc4n3CCCCC4)cn2)cc1 [NCGC00249642-01],89.1 µM
5,Cc1cc(NS(=O)(=O)c2ccc(Nc3nc(-c4ccc(C)c(C)c4)cs3)cc2)no1.O=C(O)C(F)(F)F [NCGC00249742-01],44.7 µM
6,CC(=O)N1CCN(c2ccc(NC[C@H]3CO[C@](Cn4ccnc4)(c4ccc(Cl)cc4Cl)O3)cc2)CC1 [NCGC00250372-03],44.7 µM
7,COc1ccnc2c1CCCCC2[S+]([O-])c1nc2ccccc2[nH]1 (stereo not drawn) [NCGC00253591-01],56.2 µM
8,Cc1cnc(-c2ccccc2C(C)C)nc1NC(C)c1ccc(-c2cccnc2)cc1.O=C(O)C(F)(F)F (stereo not drawn) [NCGC00253889-01],56.2 µM
9,CN(Cc1cnc2nc(N)nc(N)c2n1)c1ccc(C(=O)N[C@@H](CCC(=O)O)C(=O)O)cc1 [NCGC00260705-01],44.7 µM
10,COc1ccc(Br)cc1S(=O)(=O)NC(=O)/C=C/c1ccccc1Cc1ccc2ccccc2c1 [NCGC00260960-01],22.4 µM
11,O=C1c2ccccc2-c2n[nH]c3cccc1c23 [NCGC00261158-01],14.1 µM
12,O=C1NC(=O)/C(=C/c2ccc3c(c2)OC(F)(F)O3)S1 [NCGC00261190-01],17.8 µM
13,CCOC(=O)N1CCN([N+]([O-])=NOc2ccc([N+](=O)[O-])cc2[N+](=O)[O-])CC1 [NCGC00261300-01],21.3 µM
14,Cl.O=c1cc(N2CCOCC2)oc2c(-c3ccccc3)cccc12 [NCGC00261395-01],50.1 µM
15,CCN(CC)CCOc1ccc(Nc2ncc3cc(-c4c(Cl)cccc4Cl)c(=O)n(C)c3n2)cc1.Cl.Cl.O [NCGC00261745-01],50.1 µM
16,O=C(O)CCCC[P+](c1ccccc1)(c1ccccc1)c1ccccc1.[Br-] [NCGC00261975-01],56.2 µM
17,O=C(O)C(F)(F)F.O=C(c1ccc2c(c1)ncn2-c1ccc(C(F)(F)F)cc1)N1CCCCC1 [NCGC00262230-01],44.7 µM
18,O=C(Cn1nc(-c2ccc(F)cc2)ccc1=O)NCCc1ccccc1.O=C(O)C(F)(F)F [NCGC00262332-01],56.2 µM
19,CC(C)COc1ccc(-c2ccc(=O)n(CC(=O)NCCc3ccccc3)n2)cc1.O=C(O)C(F)(F)F [NCGC00262348-01],56.2 µM
20,O=C(O)C(F)(F)F.O=C(c1cnc(N2CCCCC2)c2ccccc12)N1CCN(c2ccccc2)CC1 [NCGC00262736-01],31.6 µM
21,O=Cc1ccc(O)c(O)c1O [NCGC00262933-01],56.2 µM
22,Cc1ccc(S(=O)(=O)Nc2ccc(OC(F)(F)F)cc2C(=O)Nc2nc(-c3ccccc3)cs2)cc1.O=C(O)C(F)(F)F [NCGC00262991-01],44.7 µM
